Laboratory results as given in ChEMBL document CHEMBL4414638, “Structure-Activity Relationship of Peptide-Conjugated Chloramphenicol for Inhibiting Escherichia coli” (J Med Chem, 2019).
≈ marks a conversion by molar mass, not a printed value. *1 amine or outer side, *2 acyl side, *3 side chain or, on linkers, in order; H or OH if unused. Where a SMILES comes first, the peptide text is derived from it. [ ]: non-standard residue; d: D form. The star is where a group is joined. X1 = O=C(CCC(=O)[*:2])OC[C@@H](N[*:1])[C@H](O)c1ccc([N+](=O)[O-])cc1; Dichloroacetyl = O=C(C(Cl)Cl)*

Assays:
Escherichia coli = assay: Antibacterial activity against Escherichia coli K-12 assessed as reduction in bacterial growth incubated for 16 hrs; type: functional; settings: K-12, 16 h
[1] = Cytotoxicity in human HS5 cells assessed as reduction in cell viability at 20 uM to 2 mM incubated up to […]rs relative to chloramphenicol; type: cell-based
HEK293 = assay: Cytotoxicity in human HEK293 cells assessed as reduction in cell viability at 20 uM […] relative to chloramphenicol; type: cell-based; settings: hek293, 20 µM
[2] = Drug metabolism in human serum assessed as formation of chloramphenicol at 200 uM at 37 degC after 24 hrs by LC-MS analysis relative to control

SMILES	MIC (Escherichia coli) [µM]	Activity [1]	Activity (HEK293)	Drug metabolism [2]
CC(C)C[C@@H](NC(=O)CNC(=O)CCC(=O)OC[C@@H](NC(=O)C(Cl)Cl)[C@H](O)c1ccc([N+](=O)[O-])cc1)C(=O)O	20 (≈ 11.9 µg/mL)	Non-Toxic	Toxic	–
O=C(O)CNC(=O)CNC(=O)CNC(=O)CNC(=O)CCC(=O)OC[C@@H](NC(=O)C(Cl)Cl)[C@H](O)c1ccc([N+](=O)[O-])cc1 (Dichloroacetyl-[X1]GGGG-OH)	20 (≈ 13 µg/mL)	Non-Toxic	Toxic	–
C[C@@H](NC(=O)CNC(=O)CCC(=O)OC[C@@H](NC(=O)C(Cl)Cl)[C@H](O)c1ccc([N+](=O)[O-])cc1)C(=O)O	20 (≈ 11 µg/mL)	Non-Toxic	Toxic	–
CNC(=O)CNC(=O)CNC(=O)CCC(=O)OC[C@@H](NC(=O)C(Cl)Cl)[C@H](O)c1ccc([N+](=O)[O-])cc1	20 (≈ 11 µg/mL)	Non-Toxic	Toxic	–
O=C(CCC(=O)OC[C@@H](NC(=O)C(Cl)Cl)[C@H](O)c1ccc([N+](=O)[O-])cc1)NCC(=O)NCC(=O)N[C@H](Cc1ccccc1)C(=O)N[C@H](Cc1ccccc1)C(=O)O	20 (≈ 16.6 µg/mL)	Non-Toxic	Toxic	Metabolite_Detected
O=C(CCC(=O)OC[C@@H](NC(=O)C(Cl)Cl)[C@H](O)c1ccc([N+](=O)[O-])cc1)NCC(=O)NCC(=O)N[C@@H](Cc1ccccc1)C(=O)O	20 (≈ 13.7 µg/mL)	Non-Toxic	Toxic	–
O=C(O)C[C@H](NC(=O)CNC(=O)CCC(=O)OC[C@@H](NC(=O)C(Cl)Cl)[C@H](O)c1ccc([N+](=O)[O-])cc1)C(=O)O	20 (≈ 11.9 µg/mL)	Non-Toxic	Toxic	–
O=C(CCC(=O)OC[C@@H](NC(=O)C(Cl)Cl)[C@H](O)c1ccc([N+](=O)[O-])cc1)NCC(=O)NCC(=O)N[C@@H](Cc1ccccc1)C(=O)N[C@@H](Cc1ccccc1)C(=O)O	20 (≈ 16.6 µg/mL)	Non-Toxic	Toxic	–
O=C(O)CCC(=O)OC[C@@H](NC(=O)C(Cl)Cl)[C@H](O)c1ccc([N+](=O)[O-])cc1 [CHLORAMPHENICOL SUCCINIC ACID]	> 200	Non-Toxic	Toxic	–
